What was measured:
HDAC1/2 = conditions: read-out: HDAC1/2 IC50; cited from earlier work
A549 cells = assay: Cell viability; assay type: cell-based; conditions: for Antiproliferative activity against A549, in words: A549 cells; for IC50: Homo sapiens, A549, 72 h, read-out: Anti-proliferative activity IC50, A549
MCF-7 cells = assay: Cell viability; assay type: cell-based; conditions: for Antiproliferative activity against MCF-7, in words: MCF-7 cells; for IC50: Homo sapiens, MCF7, 72 h, read-out: Anti-proliferative activity IC50, MCF-7
[1] = system: TNF-α, IL-1α, IL-1β mRNA expression; assay: Quantitative RT-PCR of NTHi-induced cytokine mRNA in BEAS-2B cells; assay type: cell-based, human; conditions: 1 µM, 2 h pretreatment, 1.5 h NTHi, relative to SAHA
NF-κB = NF-κB luciferase assay in NTHi-stimulated BEAS-2B cells; assay type: cell-based, human
HDAC6 = biological target: T1, HDAC6 (Homo sapiens, UniProt Q9UBN7); assay: HDAC6 inhibition, label-free mass spectrometry-based SAMDI assay; assay type: biochemical; conditions: vs 26e as printed
T1 sequence (Q9UBN7 1-1215): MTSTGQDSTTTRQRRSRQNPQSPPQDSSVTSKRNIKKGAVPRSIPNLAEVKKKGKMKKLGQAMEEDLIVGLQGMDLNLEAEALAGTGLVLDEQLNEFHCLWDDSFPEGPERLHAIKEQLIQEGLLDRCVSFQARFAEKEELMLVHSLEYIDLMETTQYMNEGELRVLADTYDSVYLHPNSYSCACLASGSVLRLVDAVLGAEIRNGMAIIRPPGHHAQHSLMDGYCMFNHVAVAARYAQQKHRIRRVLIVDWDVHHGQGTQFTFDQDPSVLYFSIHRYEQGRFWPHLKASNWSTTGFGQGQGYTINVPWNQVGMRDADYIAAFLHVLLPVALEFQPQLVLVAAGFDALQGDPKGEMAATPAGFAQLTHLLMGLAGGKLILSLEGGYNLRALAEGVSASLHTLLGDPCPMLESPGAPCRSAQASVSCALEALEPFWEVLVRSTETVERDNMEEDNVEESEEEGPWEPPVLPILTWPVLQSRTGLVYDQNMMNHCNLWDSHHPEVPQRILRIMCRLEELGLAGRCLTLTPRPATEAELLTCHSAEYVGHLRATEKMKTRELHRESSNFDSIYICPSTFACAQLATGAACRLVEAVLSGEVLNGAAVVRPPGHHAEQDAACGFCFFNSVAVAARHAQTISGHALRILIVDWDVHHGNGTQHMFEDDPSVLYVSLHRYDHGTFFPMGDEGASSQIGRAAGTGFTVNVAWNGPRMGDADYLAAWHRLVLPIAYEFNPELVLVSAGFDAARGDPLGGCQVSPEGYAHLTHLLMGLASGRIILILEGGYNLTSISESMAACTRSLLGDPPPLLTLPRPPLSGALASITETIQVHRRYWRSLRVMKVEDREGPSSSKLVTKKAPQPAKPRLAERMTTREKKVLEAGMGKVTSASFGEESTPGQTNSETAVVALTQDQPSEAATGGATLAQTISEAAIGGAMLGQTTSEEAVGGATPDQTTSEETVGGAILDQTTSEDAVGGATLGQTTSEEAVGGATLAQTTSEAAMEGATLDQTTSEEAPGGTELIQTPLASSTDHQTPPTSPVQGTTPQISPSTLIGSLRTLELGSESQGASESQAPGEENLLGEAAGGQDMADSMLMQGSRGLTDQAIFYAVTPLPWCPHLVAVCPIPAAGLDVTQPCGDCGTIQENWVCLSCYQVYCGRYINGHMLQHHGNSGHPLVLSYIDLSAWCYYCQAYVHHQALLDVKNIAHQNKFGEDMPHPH

HDAC8 = biological target: T2, HDAC8 (Homo sapiens, UniProt Q9BY41); assay: HDAC8 inhibition, label-free mass spectrometry-based SAMDI assay; assay type: biochemical; conditions: vs 26e as printed
T2 sequence (Q9BY41 1-377): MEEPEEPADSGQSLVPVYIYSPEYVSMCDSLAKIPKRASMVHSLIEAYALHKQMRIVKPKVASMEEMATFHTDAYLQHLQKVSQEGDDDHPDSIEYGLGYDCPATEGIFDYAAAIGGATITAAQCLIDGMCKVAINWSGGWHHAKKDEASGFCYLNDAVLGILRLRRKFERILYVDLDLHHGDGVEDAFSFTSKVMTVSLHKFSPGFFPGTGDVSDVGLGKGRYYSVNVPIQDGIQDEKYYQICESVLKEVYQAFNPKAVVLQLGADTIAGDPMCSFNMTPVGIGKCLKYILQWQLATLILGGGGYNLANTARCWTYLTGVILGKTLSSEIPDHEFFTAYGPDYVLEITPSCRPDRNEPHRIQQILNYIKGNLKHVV

Vero cells = assay: Cell viability; assay type: cell-based, monkey; conditions: Primates, 72 h, read-out: Anti-proliferative activity IC50, Vero

| SMILES | Antiproliferative activity against A549, in words (A549 cells) | Antiproliferative activity against MCF-7, in words (MCF-7 cells) | Suppression of NTHi-induced TNF-α, IL-1α, IL-1β mRNA expression [1] | also measured |
| --- | --- | --- | --- | --- |
| CC[C@H]1OC(=O)[C@@H](C)[C@H](O[C@H]2C[C@@](C)(OC)[C@@H](O)[C@H](C)O2)[C@H](C)[C@H](O[C@H]2O[C@@H](C)C[C@@H](N(C)Cc3ccc(-c4cn(CCCCCCC(=O)NO)nn4)cc3)[C@@H]2O)[C@@](C)(O)C[C@H](C)CN(C)[C@@H](C)[C@H](O)[C@@]1(C)O [Compound 17f] | – | – | – | IC50 (HDAC1/2): 0.0139 µM |
| CC[C@@H]1OC(=O)[C@@H](C)[C@H](O[C@H]2C[C@@](C)(OC)[C@](O)(CN(C)Cc3ccc(-c4cn(CCCCCCC(=O)NO)nn4)cc3)[C@H](C)O2)[C@H](C)[C@H](O[C@@H]2O[C@H](C)C[C@H](N(C)C)[C@H]2O)[C@@](C)(OC)C[C@H](C)C(=O)[C@@H](C)[C@@H](O)[C@@]1(C)O [Compound 38f] | potently inhibited | potently inhibited | more significantly suppressed | – |
| CC[C@H]1OC(=O)[C@H](C)C(=O)[C@H](C)[C@@H](O[C@@H]2O[C@H](C)C[C@H](N(C)Cc3cccc(-c4cn(CCCCCC(=O)NO)nn4)c3)[C@H]2O)[C@@](C)(OC)C[C@@H](C)C2=NCCN3C(=O)O[C@@]1(C)[C@H]3[C@H]2C [Compound 25a, (Tricyclic Ketolide-3′-(N-(3-triazolylbenzyl)))-N-hydroxyhexanamide] | non-cytotoxic | non-cytotoxic | – | IC50 (A549 cells): > 20 µM; IC50 (MCF-7 cells): > 20 µM; Effect on NF-κB activation, in words (NF-κB; NTHi infected BEAS-2B cells, 1 µM pre-screen): suppressing NF-κB activation; NF-κB inhibition IC50 (NF-κB; NTHi-stimulated BEAS-2B cells, luciferase): no dose-dependent effect |
| CC[C@H]1OC(=O)[C@@H](C)[C@H](O[C@H]2C[C@@](C)(OC)[C@@H](O)[C@H](C)O2)[C@H](C)[C@H](O[C@H]2O[C@@H](C)C[C@@H](N(C)Cc3ccc(-c4cn(CCCC(=O)NO)nn4)cc3)[C@@H]2O)[C@@](C)(O)C[C@H](C)CN(C)[C@@H](C)[C@H](O)[C@@]1(C)O [Compound 17c] | devoid of antiproliferative activities | devoid of antiproliferative activities | – | IC50 (A549 cells): > 20 µM; IC50 (MCF-7 cells): > 20 µM |
| CC[C@H]1OC(=O)[C@H](C)C(=O)[C@H](C)[C@@H](O[C@@H]2O[C@H](C)C[C@H](N(C)Cc3cccc(-c4cn(CCCCCCC(=O)NO)nn4)c3)[C@H]2O)[C@@](C)(OC)C[C@@H](C)C2=NCCN3C(=O)O[C@@]1(C)[C@H]3[C@H]2C [Compound 25b, (Tricyclic Ketolide-3′-(N-(3-triazolylbenzyl)))-N-hydroxyheptanamide] | – | potently inhibited | – | Fold more potent against HDAC6 than 26e (HDAC6): approximately 2 fold; Fold more potent against HDAC8 than 26e (HDAC8): ~5 fold |
| CC[C@H]1OC(=O)[C@H](C)C(=O)[C@H](C)[C@@H](O[C@@H]2O[C@H](C)C[C@H](N(C)Cc3ccc(-c4cn(CCCCCCC(=O)NO)nn4)cc3)[C@H]2O)[C@@](C)(OC)C[C@@H](C)C2=NCCN3C(=O)O[C@@]1(C)[C@H]3[C@H]2C [Compound 26f] | – | – | more significantly suppressed | – |
| O=C(CCCCCCC(=O)Nc1ccccc1)NO [SAHA, suberoylanilide hydroxamic acid, reference compound] | – | – | – | IC50 (Vero cells): 1.03 ± 0.09 µM |
| CC[C@@H]1OC(=O)[C@@H](C)[C@H](O[C@H]2C[C@@](C)(OC)[C@@H](O)[C@H](C)O2)[C@@H](C)[C@H](O[C@H]2O[C@@H](C)C[C@@H](N(C)C)[C@@H]2O)[C@](C)(O)C[C@H](C)CN(Cc2ccc(-c3cn(CCCCCCC(=O)NO)nn3)cc2)[C@H](C)[C@H](O)[C@@]1(C)O [Compound 8f, (Azithromycin-(N10-(4-triazolylbenzyl)))-N-hydroxyheptanamide] | – | – | more significantly suppressed | – |
